From patent publication US20090326008A1, “NF-kappa B Inhibitor” (priority 2006, published 2009)

What was measured:
Type in all cases: cell-based, human
COX2 = test: Relative COX2 mRNA expression in IL-1β-stimulated MKN-45 cells (real-time PCR); conditions: IL-1β-stimulated DMSO-treated cells = 100%, ACTB reference
Procedure: (§1) RNA was extracted from the cells used in Example 2 according to the manufacturer's protocol for ABI Prism 6100 Nucleic Acid PrepStation (a nucleic acid isolation system, product of Applied Biosystems). More specifically, after removal of the culture supernatant and washing with 1 mL of PBS, 250 μL of Nucleic Acid Purification Lysis Solution (Part No. 4305895, Applied Biosystems) was added, and then agitated using a shaker for 2 to 3 minutes. The Lysis Solution containing the cell lysate was collected, and the total amount was transferred to the wells of RNA Purification Tray (Part No. 4305673, Applied Biosystems), which had been pre-wet with 40 μL of Nucleic Acid Purification Wash Solution I (Part No. 4305891, Applied Biosystems) beforehand. Aspiration (20% pressure) was performed for 2 minutes to adsorb the sample onto the RNA Purification Tray, followed by sequentially adding and aspirating (20% pressure, 2 min.) 500 μL of Wash Solution I, Nucleic Acid Purification (Part No. 4305891, Applied Biosystems), 400 μL of Wash Solution II, Nucleic Acid Purification (Part No. 4305890, product of Applied Biosystems), 400 μL of the Wash Solution II, and 300 μL of the Wash Solution II in that order. Aspiration (90% pressure) was performed for 5 minutes to remove the water content from the RNA Purification Trays. After addition of 150 μL of Elution Solution, Nucleic Acid Purification (Part No. 4305893, product of Applied Biosystems), aspiration (20% pressure) was performed for 2 minutes, while collecting the outflow. This was used as collected RNA solution.
(§2) Absorbance of the collected RNA solution at 260 nm was measured using a microplate spectrophotometer (“SpectraMax Plus”, product of Molecular Devices) with an analysis software (“SOFTmaxPRO ver.3.1.2”, product of Molecular Devices), and the RNA concentration was determined from the absorbance. Likewise, absorbance at 280 nm was measured and the purity of the RNA was determined using the analysis software.
(§3) cDNA was synthesized according to the manufacturer's protocol for TaqMan® Reverse Transcription Reagents (Part No. N808-0234, product of Applied Biosystems). More specifically, about 0.5 μg of RNA, 2.5 μL of 10×RT buffer, 5.5 μL of MgCl2 solution, 5 μL of dNTP mixture, 1.25 μL of random hexamer (primers), 0.5 μL of RNase inhibitor, and 0.63 μL of MultiScribe Reverse Transcriptase (product of Applied Biosystems) were added to each collected RNA sample in a tube, and DEPC-treated water was added to make a total volume of 25 μL and stirred. A reaction consisting of 25° C. for 10 minutes, 48° C. for 30 minutes, and 95° C. for 5 minutes was performed using a PCR thermal cycler (“TaKaRa PCR Thermal Cycler Dice”, product of Takara Bio Inc.) to prepare a cDNA solution.
(§4) PCR was performed according to the manufacturer's protocol for TaqMan® Gene Expression Assays (product of Applied Biosystems). More specifically, 5 μL of TaqMan® Fast Universal PCR Master Mix (product of Applied Biosystems), 0.5 μL of TaqMan® Gene Expression Assays for the target gene (gene-specific probe and primer sets, product of Applied Biosystems), and 4.5 μL of the above-obtained cDNA solution were added to each sample and stirred. A PCR reaction consisting of heating at 95° C. for 20 seconds, followed by 40 cycles consisting of heating at 95° C. for 3 seconds and annealing and extension at 60° C. for 30 seconds was performed using a real-time PCR device (“Applied Biosystems 7500 Real-Time PCR System”) with SDS v1.4 Software (product of Applied Biosystems). Threshold cycle (Ct) values were calculated using the software.
(§5) The Assay IDs of the TaqMan® Gene Expression Assays for the target genes used are as follows:
(§6) The expression level of each gene was determined according to the following formula using the level of ACTB as a reference standard.
(§7) (Relative mRNA expression level)=2̂−{(Ct value of the target gene)−(Ct value of ACTB)} […]

IL-8 = test: Relative IL-8 mRNA expression in IL-1β-stimulated MKN-45 cells (real-time PCR); conditions: IL-1β-stimulated DMSO-treated cells = 100%, ACTB reference
Procedure: as §1, §2, §3, §4, §5, §6, §7

TNFα = test: Relative TNFα mRNA expression in IL-1β-stimulated MKN-45 cells (real-time PCR); conditions: IL-1β-stimulated DMSO-treated cells = 100%, ACTB reference
Procedure: as §1, §2, §3, §4, §5, §6, §7

NF-κB = test: NF-kappaB reporter assay (pNF-kappaB-SEAP) in IL-1β-stimulated MKN-45 cells; conditions: IL-1β 2 ng/mL for 6 hours, DMSO (0.05%) control = 1.00, triplicate
Procedure: pNF-kappaB-SEAP was obtained from Clonetech Laboratories Inc.
Cryopreserved MKN-45 cells (product of JCRB (Japanese Collection of Research Bioresources)) were thawed and cultured in a standard medium in an incubator (37° C., 5% CO2). Every three to five days, the cells were recovered by treatment with Trypsin-EDTA, then adequately diluted and subcultured. MKN-45 cells subcultured two or more times with a survival rate of 95% or more were used in each experiment.
The subcultured MKN-45 cells were harvested using Trypsin-EDTA solution, and the number of viable cells was counted. The cells were suspended in a standard medium to yield a 1.5×10^5 cells/mL suspension. A 24-well plate was seeded with 500 μL/well of the cell suspension, and the cells were cultured in an incubator (37° C., 5% CO2).
The day after seeding, transfection was performed according to the following protocol.
(4.1) Preparation of Plasmid Solution 4 μL of 0.1 μg/μL pNFkappaB-SEAP was placed into each well and diluted with 50 μL of OPTI-MEM I (product of Invitrogen Japan K.K.) by mixing by inversion.
1 μL of Lipofectamine 2000 reagent (product of Invitrogen) was placed into each well and diluted with 50 μL of OPTI-MEM I (product of Life Technologies Inc.) by mixing by inversion. The mixture was allowed to stand at room temperature for 5 to 10 minutes to prepare a Lipofectamine dilution.
The plasmid solution and the Lipofectamine dilution were mixed by inversion and allowed to stand at room temperature for 20 to 30 minutes to prepare a transfection mixture.
The culture medium was removed from the 24-well plate by suction. While care was taken not to dry the subcultured MKN-45 cells, the inner surface of the wells was washed with 1 mL/well of PBS. After the medium was replaced with 500 μL/well of OPTI-MEM I (product of Life Technologies Inc.), 100 μL/well of the transfection mixture was added, and the cells were cultured in a incubator (37° C., 5% CO2). After about 5 hours of incubation, the medium was replaced with a standard medium, and the cells were further cultured in a CO2 incubator (37° C., 5% CO2) until the following day.
On the following morning, the culture medium supernatant was removed by suction and replaced with 1 mL/well of the test compound solution or control solution diluted with a standard medium. The cells were cultured in a CO2 incubator (37° C., 5% CO2) for 1 hour. Each experiment was performed in triplicate.
200 ng/mL IL-1β was added in an amount of 10 μL/well (final concentration: 2 ng/mL), and the cells were cultured in a CO2 incubator (37° C., 5% CO2) for 6 hours.
A reporter assay was performed using Reporter Assay Kit-SEAP (product of Toyobo Co.) according to the manufacturer's protocol.
More specifically, 500 μL of the culture broth was transferred into a tube and centrifuged at 15,000 rpm for 5 minutes at 4° C. The supernatant was transferred into a 96-well white plate. The positive control included in the Reporter Assay Kit-SEAP, and a standard medium as a blank control were each added in an amount of 20 μL/well to the 96-well white plate. Further, an inhibitor for inhibiting the AP activity of the MKN-45 cells was added in an amount of 20 μL/well. After sealing the plate, the contents were mixed well. The plate was placed into a CO2 incubator (37° C., 5% CO2) and allowed to stand for 30 minutes. Subsequently, the plate was allowed to stand on ice for 1 minute, followed by addition of 160 μL/well of Lumi-Phos Plus (a chemiluminescent substrate, product of Lumigen Inc.). The plate was sealed again and placed in a light-shielded state into a CO2 incubator (37° C., 5% CO2). After the plate was allowed to stand for 15 to 30 minutes, luminescence was measured for about 5 to about 10 seconds using a luminometer.
The results of the reporter assay were expressed as Percent Control (or Inhibition), calculated according to the following formulae. The luminescence of each sample was calculated by subtracting the average of blank samples.

In the case of COc1ccc(CC2SC(=O)NC2=O)c2c1N(Cc1ccc(C#N)cc1)C(=O)CC2 (centres unmarked) [Test Compound 125], the “COX2 relative mRNA expression level, Mean” value (COX2) is reported as 29.2%, the “IL-8 relative mRNA expression level, Mean” value (IL-8) is reported as 45.4% and the “TNFa relative mRNA expression level, Mean” value (TNFα) is reported as 52.5%. For the same compound, the “NF-kappaB reporter (SEAP luminescence) IL-1b(+) mean, relative to control” value (shortened to “NF-kappaB reporter … relative to control”) (NF-κB) was 0.55.
COc1ccc(CC2SC(=O)NC2=O)c2c1N(Cc1ccc(NS(C)(=O)=O)cc1)C(=O)CC2 (centres unmarked) [Test Compound 131] was tested, and the “COX2 relative mRNA expression level, Mean” value (COX2) was 80.9%, the “IL-8 relative mRNA expression level, Mean” value (IL-8) was 77.9% and the “TNFa relative mRNA expression level, Mean” value (TNFα) was 71.3%. For the same compound, the “NF-kappaB reporter … relative to control” value (NF-κB) was 0.49.
In the case of COc1ccc(CC2SC(=S)NC2=O)c2c1N(Cc1ccc(C(C)(C)C)cc1)C(=O)CC2 (centres unmarked) [Test Compound 914], the “COX2 relative mRNA expression level, Mean” value (COX2) is reported as 32.9%, the “IL-8 relative mRNA expression level, Mean” value (IL-8) is reported as 61.9% and the “TNFa relative mRNA expression level, Mean” value (TNFα) is reported as 66.7%. For the same compound, the “NF-kappaB reporter … relative to control” value (NF-κB) was 0.53.
With COc1ccc(CC2SC(=O)NC2=O)c2c1N(Cc1ccc(OCc3ccccc3)cc1)C(=O)CC2 (centres unmarked) [Test Compound 127] the “COX2 relative mRNA expression level, Mean” value (COX2) was 31.0%, the “IL-8 relative mRNA expression level, Mean” value (IL-8) was 44.8% and the “TNFa relative mRNA expression level, Mean” value (TNFα) was 49.8%. For the same compound, the “NF-kappaB reporter … relative to control” value (NF-κB) was 0.60.
For O=C1NC(=O)C(Cc2ccc3c(c2)CCC(=O)N3Cc2ccc(-c3ccccc3)cc2)S1 (centres unmarked) [Test Compound 186], the “COX2 relative mRNA expression level, Mean” value (COX2) was 29.7%, the “IL-8 relative mRNA expression level, Mean” value (IL-8) was 67.7% and the “TNFa relative mRNA expression level, Mean” value (TNFα) was 70.8%. For the same compound, the “NF-kappaB reporter … relative to control” value (NF-κB) was 0.67.
For O=C1NC(=O)C(Cc2cccc3c2CCC(=O)N3Cc2ccc(Br)cc2)S1 (centres unmarked) [Test Compound 134], the “COX2 relative mRNA expression level, Mean” value (COX2) was 33.1%, the “IL-8 relative mRNA expression level, Mean” value (IL-8) was 55.4% and the “TNFa relative mRNA expression level, Mean” value (TNFα) was 36.6%. The “NF-kappaB reporter … relative to control” value (NF-κB) was 0.46.
For COc1ccc(CC2SC(=O)NC2=O)c2c1N(Cc1ccc(NC(=O)C3CCCCC3)cc1)C(=O)CC2 (centres unmarked) [Test Compound 225], the “COX2 relative mRNA expression level, Mean” value (COX2) was 32.9%, the “IL-8 relative mRNA expression level, Mean” value (IL-8) was 50.0% and the “TNFa relative mRNA expression level, Mean” value (TNFα) was 44.6%. The “NF-kappaB reporter … relative to control” value (NF-κB) was 0.49.
With O=C1NC(=S)SC1Cc1cccc2c1CCC(=O)N2Cc1ccc2ccccc2c1 (centres unmarked) [Test Compound 996] the “COX2 relative mRNA expression level, Mean” value (COX2) was 31.3%, the “IL-8 relative mRNA expression level, Mean” value (IL-8) was 50.1% and the “TNFa relative mRNA expression level, Mean” value (TNFα) was 41.3%. For the same compound, the “NF-kappaB reporter … relative to control” value (NF-κB) was 0.43.
For COc1ccc(CC2SC(=S)NC2=O)c2c1N(CCOc1ccccc1)C(=O)CC2 (centres unmarked) [Test Compound 981], the “COX2 relative mRNA expression level, Mean” value (COX2) was 37.8%, the “IL-8 relative mRNA expression level, Mean” value (IL-8) was 70.4% and the “TNFa relative mRNA expression level, Mean” value (TNFα) was 75.7%. The “NF-kappaB reporter … relative to control” value (NF-κB) was 0.68.
For COc1ccc(OC(=O)Nc2ccc(CN3C(=O)CCc4c(CC5SC(=O)NC5=O)ccc(OC)c43)cc2)cc1 (centres unmarked) [Test Compound 237], the “COX2 relative mRNA expression level, Mean” value (COX2) was 25.9%, the “IL-8 relative mRNA expression level, Mean” value (IL-8) was 25.9% and the “TNFa relative mRNA expression level, Mean” value (TNFα) was 26.2%. The “NF-kappaB reporter … relative to control” value (NF-κB) was 0.57.
In the case of COc1ccc(CC2SC(=O)NC2=O)c2c1N(CCCC(=O)Nc1ccccc1)C(=O)CC2 (centres unmarked) [Test Compound 608], the “COX2 relative mRNA expression level, Mean” value (COX2) is reported as 42.4%, the “IL-8 relative mRNA expression level, Mean” value (IL-8) is reported as 36.5% and the “TNFa relative mRNA expression level, Mean” value (TNFα) is reported as 30.8%. The “NF-kappaB reporter … relative to control” value (NF-κB) was 0.71.
